Tests used:
NSP4 [1] = target: T1, NSP4 (Homo sapiens, UniProt Q6UWY2); assay: Inhibition rate constant (kobs/I), pseudo-first order, NSP4; format: biochemical
T1 construct: made in house
T1 sequence (Q6UWY2 32-283): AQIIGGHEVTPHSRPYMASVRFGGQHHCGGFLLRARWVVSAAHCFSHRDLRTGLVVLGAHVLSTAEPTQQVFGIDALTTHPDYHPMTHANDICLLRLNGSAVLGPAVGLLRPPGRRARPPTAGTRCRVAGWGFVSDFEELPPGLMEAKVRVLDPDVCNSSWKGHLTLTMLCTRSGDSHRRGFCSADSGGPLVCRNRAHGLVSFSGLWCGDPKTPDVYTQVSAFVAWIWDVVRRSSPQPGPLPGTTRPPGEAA
Method: (§1) The active concentration of each NSP was determined by PK401 titration in 50 mM Hepes, 0.1 M NaCl, 0.1%TRITON-X100, pH 7.45 assay buffer on 96 wells Corning plates. Rfu/s values were measured for minimum 20 minutes. The excitation wavelength was 355 nm, and the emission wavelength was 460 nm, with a cutoff of 455 nm. Under pseudo-first order conditions, a fixed amount of NSP4 (2.8 nM active enzyme), PR3, NE, or CatG (100 nM active enzyme) was mixed with PK401 at different concentration ranges starting from at least 2-fold excess over NSP4 (6.6–20nM) and 7-fold excess over NE, CatG and PR3 (0.7–50μM). […] Product formation (P) proceeded at an initial velocity (V) and was inhibited over time (t) at a rate of (k a): P = V/ka*(1-e^-ka^*t)+C, where k o is defined as k obs(app) −the apparent rate of inhibition in the presence of substrate. k obs was determined separately for each probe concentration using non-linear regression analysis in GraphPadPrism software. The obtained values were plotted against probe concentration giving k obs(app)/I (apparent second order rate constant). kobs/I (absolute value of the second order rate constant) was then calculated from kobs/I = ka/I *(1+[S]/Km). […]

CatG [2] = target: T2, CatG (Homo sapiens, UniProt P08311); assay: Inhibition rate constant (kobs/I), pseudo-first order, CatG; format: biochemical; conditions: selectivity NSP4 over CatG
T2 construct: purchased Biocentrum, Krakow, Poland
T2 sequence (P08311 21-255): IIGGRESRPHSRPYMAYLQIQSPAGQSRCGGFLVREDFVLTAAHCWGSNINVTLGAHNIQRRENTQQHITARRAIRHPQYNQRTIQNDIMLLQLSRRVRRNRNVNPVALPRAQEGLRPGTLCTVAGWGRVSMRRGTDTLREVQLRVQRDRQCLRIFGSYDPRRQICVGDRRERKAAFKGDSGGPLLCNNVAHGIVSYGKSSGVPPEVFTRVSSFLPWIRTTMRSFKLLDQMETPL
Method: as §1

NSP4 [3] = target: T1, NSP4; assay: SDS-PAGE / streptavidin blot labeling of purified NSP4 by probe; format: binding; conditions: 100 nM NSP4, 20 min 37°C; SDS-PAGE, nitrocellulose transfer, fluorescent streptavidin; probe tested 1–2000 nM
Method: 100nM of NSP4 was incubated with competing inhibitor—Ac-IVPR-CMK for 30 minutes at 37°C and then treated with different concentrations of probe—PK401 (2000nM and 1000nM) for 20 minutes at 37°C. Separately, 100nM of NSP4 was incubated with five different concentrations of probe- 2000nM, 1000nM, 100nM, 10nM, and 1 nM for 20 minutes in 37°C. As a control 100nM PK401 was incubated with assay buffer.
(§2) Samples were denatured and run in 4–12% SDS PAGE following transfer to nitrocellulose membrane. The membrane was blocked with 1.5% BSA in TBST overnight at 4°C and treated with IRDye800CW Streptavidin (dilution 1:10000 with 1.5% BSA in TBST) for 45 minutes. Then enzyme was visualized using a Li-cor fluorescence imager and Odyssey Molecular Modeling Software.
(§3) SDS-page and Western Blot […]
A standard SDS broad spectrum marker (Biorad) was used (Fig. 4A, lane 1). […]
(§4) minutes in 37° C (Fig. 4, lanes 4, 5, 6, 7, 8). […] Then enzyme was visualized using a Li-cor fluorescence imager and Odyssey Molecular Modeling Software. […]
(§5) The membrane was blocked with 1.5% BSA in TBST overnight at 4° C and treated with IRDye800CW Streptavidin (dilution 1:10000 with 1,5% BSA in TBST) for 45 minutes. Then PK401 was visualized using a Li-cor fluorescence imager and Odyssey Molecular Modeling Software.

NE = target: T3, NE (Homo sapiens, UniProt P08246); assay: SDS-PAGE / streptavidin blot labeling of NE by probe; format: binding; conditions: 100 nM active enzyme, 100 nM PK401; streptavidin blot (Fig 4B)
T3 construct: purchased Biocentrum, Krakow, Poland
T3 sequence (P08246 30-267): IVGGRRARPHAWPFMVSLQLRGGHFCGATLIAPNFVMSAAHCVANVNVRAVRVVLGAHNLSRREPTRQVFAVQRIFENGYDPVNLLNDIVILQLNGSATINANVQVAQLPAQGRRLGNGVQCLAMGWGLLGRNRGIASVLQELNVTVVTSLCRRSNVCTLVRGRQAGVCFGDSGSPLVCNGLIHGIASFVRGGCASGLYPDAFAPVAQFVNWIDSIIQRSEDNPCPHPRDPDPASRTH
Method: as §2
(§6) The same methodology was used to visualize potential cross-reactivity of NSP’s with PK401. 100nM of each NSP was incubated with buffer or 100nM PK401, followed by SDS-page and transfer to nitrocellulose membrane. For more details see S1 Text.
as §3
(§7) A standard SDS broad spectrum marker (Biorad) was used (Fig. 4A, lane 1).
(§8) Two Eppendorf tubes with 100nM of NSP4 were incubated with Ac-IVPR-CMK for 30 minutes at 37°C and then treated with PK401 at 2000nM and 1000nM for an additional 20 minutes at 37° C (Fig. 4, lanes 2 and 3). Separately, 100nM enzyme […]
as §4, §5

CatG [4] = target: T2, CatG; assay: SDS-PAGE / streptavidin blot labeling of CatG by probe; format: binding; conditions: 100 nM active enzyme, 100 nM PK401; streptavidin blot (Fig 4B)
Method: as §2, §6, §3, §7, §8, §4, §5

CatG [5] = target: T2, CatG; assay: Fluorogenic substrate hydrolysis kinetics with CatG; format: biochemical; conditions: Table 3; assay substrate for CatG; Km above 100 μM, the concentration used in the assay; read-out: Km of the substrate used for analysis
Method: Kinetic parameters of selected substrates were determined in 50 mM Hepes, 0.1 M NaCl, 0.1%TRITON-X100, pH 7.45 assay buffer on 96 wells Corning plates. Measurements were performed for a minimum of 20 minutes. The excitation wavelength was 355 nm, and the emission wavelength was 460 nm, with a cutoff of 455 nm. Human NE and CatG were purchased from Biocentrum, Krakow, Poland and PR3 from Athens Research Technology, Athens, Georgia, USA. Recombinant human NSP4 was expressed and purified as previously described.
In addition to NSP4, neutrophils contain three other structurally-related serine proteases NE, PR3 and CatG [1] that are also stored in azurophilic granules. To estimate the degree of eventual cross reactivity of the optimal substrate with these three serine proteases, we measured kinetic parameters for each enzyme on PK421. […] In the case of CatG we were unable to saturate the enzyme and therefore could not calculate the individual values of kcat and Km.

Row | Km (CatG [5]) [µM] | Substance | kobs/I (second order rate constant of inhibition) (NSP4 [1]; NSP4 2.8 nM active enzyme, probe 6.6–20 nM, substrate Ac-hCha-Phe(guan)-Pro-Arg-ACC above Km, 37°C, Hepes buffer pH 7.45, corrected by 1+[S]/Km) [M⁻¹ s⁻¹] | Fold higher kobs/I than PK401b (NSP4 [1]; NSP4, diastereoisomers compared) [times] | Inhibition of CatG relative to NSP4 (kobs/I) (CatG [2]) | Probe concentration giving robust labeling of NSP4 (NSP4 [3]) [nM] | Labeling of NE by probe (NE) | Labeling of CatG by probe (CatG [4])
1 | – | Biot-Ahx-hCha-Phe(guan)-Oic-Arg^P(OPh)2 [PK401] | 3.8e+06 | 40 | three orders of magnitude slower | 10 | only trace amounts of labeling | only trace amounts of labeling
2 | > 100 | Suc-Ala-Ala-Pro-Phe-AMC [assay substrate for CatG] | – | – | – | – | – | –
